The data set addresses T1, Nuclear receptor subfamily 1 group I member 2 (Homo sapiens, UniProt O75469).
T1 sequence (O75469 whole entry): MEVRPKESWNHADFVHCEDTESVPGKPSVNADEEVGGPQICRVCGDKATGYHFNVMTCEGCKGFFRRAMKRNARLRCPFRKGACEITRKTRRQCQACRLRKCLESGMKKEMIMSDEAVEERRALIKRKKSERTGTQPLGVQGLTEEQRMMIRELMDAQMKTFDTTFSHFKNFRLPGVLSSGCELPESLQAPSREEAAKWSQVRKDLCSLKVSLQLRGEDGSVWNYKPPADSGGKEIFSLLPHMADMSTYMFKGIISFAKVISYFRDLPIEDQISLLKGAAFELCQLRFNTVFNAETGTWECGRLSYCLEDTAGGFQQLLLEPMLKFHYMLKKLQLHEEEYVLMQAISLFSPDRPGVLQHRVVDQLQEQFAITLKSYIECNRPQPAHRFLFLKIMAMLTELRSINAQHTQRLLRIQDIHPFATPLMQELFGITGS
The data set is described as follows: Agonist activity at His-tagged PXR-LBD/SRC-1p (unknown origin) expressed in Escherichia coli BL21(DE3) by coactivator recruitment based Alpha-screen assay. In general terms: Alpha assays give light when donor and acceptor beads are brought close together.

On to `Cc1c(C)c2c(c(C)c1O)CC[C@@](C)(CCC[C@H](C)CCC[C@H](C)CCCC(C)C(=O)O)O2` (stereo partly specified), for which the midpoint of the response, the EC50, lay at 3.3 µM.

Values taken from BindingDB's records for doi:10.1021/acs.jmedchem.0c00012 (University of Perugia, 2020).
